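Exposure lasted 48 hours, with cells grown in 96-well plates and compounds tested at five concentrations. The concentration for 50% growth inhibition is given as GI50.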 Active and inactive are the calls of the source. Cut-off read from the data, not from the text of the source: active = GI50 up to about 1.1 µM and inactive = higher.
What was measured:
Assay in all cases: growth of human tumour cells (NCI), 48 h
RXF 393 = test system: RXF 393
OVCAR-8 = test system: OVCAR-8
HOP-92 = test system: HOP-92
EKVX = test system: EKVX
SK-OV-3 = test system: SK-OV-3
SNB-75 = test system: SNB-75
CAKI-1 = test system: CAKI-1
SK-MEL-5 = test system: SK-MEL-5
SNB-19 = test system: SNB-19
A549 = test system: A549
U-251 = test system: U-251
KM12 = test system: KM12
SK-MEL-2 = test system: SK-MEL-2
MOLT-4 = test system: MOLT-4
NCI-H460 = test system: NCI-H460

SMILES	GI50 (RXF 393)	GI50 (OVCAR-8)	GI50 (HOP-92)	GI50 (EKVX)	GI50 (SK-OV-3)	GI50 (SNB-75)	GI50 (CAKI-1)	GI50 (SK-MEL-5)	GI50 (SNB-19)	GI50 (A549)	GI50 (U-251)	GI50 (KM12)	GI50 (SK-MEL-2)	GI50 (MOLT-4)	GI50 (NCI-H460)
CNC(=O)CN(CC(N)=O)C(N)=O	> 100 µM (inactive)	> 100 µM (inactive)	> 100 µM (inactive)	> 100 µM (inactive)	> 100 µM (inactive)	77.3 µM (inactive)	> 100 µM (inactive)	> 100 µM (inactive)	> 100 µM (inactive)	> 100 µM (inactive)	> 100 µM (inactive)	> 100 µM (inactive)	> 100 µM (inactive)	> 100 µM (inactive)	> 100 µM (inactive)
CCOC(=O)C12CN(C34CC5CC(CC(C5)C3)C4)CC(C(=O)OCC)(C1=O)C(c1ccccc1)OC2c1ccccc1 (stereo not given)	19.4 µM (inactive)	> 100 µM (inactive)	2.04 µM (inactive)	> 100 µM (inactive)	> 100 µM (inactive)	39.7 µM (inactive)	–	94.8 µM (inactive)	> 100 µM (inactive)	> 100 µM (inactive)	> 100 µM (inactive)	> 100 µM (inactive)	> 100 µM (inactive)	35.6 µM (inactive)	> 100 µM (inactive)
C[C@H](O)CCC(=O)c1ccoc1	> 100 µM (inactive)	> 100 µM (inactive)	> 100 µM (inactive)	> 100 µM (inactive)	> 100 µM (inactive)	> 34.5 µM (inactive)	> 100 µM (inactive)	> 100 µM (inactive)	> 100 µM (inactive)	> 100 µM (inactive)	> 100 µM (inactive)	> 100 µM (inactive)	> 100 µM (inactive)	> 100 µM (inactive)	> 100 µM (inactive)
CCCCN(CCCC)C(=Nc1ccccc1)N(CCCC)CCCC	5.02 µM (inactive)	9.25 µM (inactive)	1.62 µM (inactive)	4.35 µM (inactive)	8.43 µM (inactive)	16.4 µM (inactive)	–	–	6.81 µM (inactive)	7.62 µM (inactive)	1.95 µM (inactive)	3.7 µM (inactive)	6.64 µM (inactive)	2.72 µM (inactive)	3.34 µM (inactive)
Nc1n/c(=N\c2ccccc2)ss1	> 100 µM (inactive)	> 100 µM (inactive)	> 100 µM (inactive)	> 100 µM (inactive)	> 100 µM (inactive)	> 100 µM (inactive)	> 100 µM (inactive)	> 100 µM (inactive)	> 100 µM (inactive)	> 100 µM (inactive)	> 100 µM (inactive)	> 100 µM (inactive)	–	> 100 µM (inactive)	> 100 µM (inactive)
O=C(c1ccccc1)C1S(=O)(=O)OCCOS1(=O)=O	–	> 100 µM (inactive)	> 100 µM (inactive)	> 100 µM (inactive)	> 100 µM (inactive)	> 100 µM (inactive)	> 100 µM (inactive)	> 100 µM (inactive)	> 100 µM (inactive)	> 100 µM (inactive)	–	> 100 µM (inactive)	> 100 µM (inactive)	> 10 µM (inactive)	–
Cc1ccc(NC(=O)OCC(COc2ccc(Cl)cc2Cl)OC(=O)Nc2ccc(C)cc2)cc1 (stereo not given)	79.4 µM (inactive)	12.5 µM (inactive)	53.7 µM (inactive)	> 100 µM (inactive)	> 100 µM (inactive)	27 µM (inactive)	< 0.01 µM (active)	–	47.6 µM (inactive)	> 100 µM (inactive)	34.8 µM (inactive)	> 100 µM (inactive)	> 100 µM (inactive)	–	> 100 µM (inactive)
CCOC(=O)CC(=O)Sc1ccccc1	10.3 µM (inactive)	16.9 µM (inactive)	27.5 µM (inactive)	19 µM (inactive)	24.5 µM (inactive)	–	–	17.3 µM (inactive)	28.2 µM (inactive)	14.6 µM (inactive)	12.4 µM (inactive)	25.6 µM (inactive)	25.4 µM (inactive)	11 µM (inactive)	24.7 µM (inactive)
COc1ccccc1NC(=O)CC(=O)n1nc(C)c(/N=N/c2ccccc2C(=O)O)c1C	–	> 100 µM (inactive)	–	29.6 µM (inactive)	> 100 µM (inactive)	32.1 µM (inactive)	47.1 µM (inactive)	68.1 µM (inactive)	> 100 µM (inactive)	> 100 µM (inactive)	95.7 µM (inactive)	> 100 µM (inactive)	> 100 µM (inactive)	> 100 µM (inactive)	> 100 µM (inactive)
Cc1ccc(/C=N/NS(=O)(=O)c2ccccc2)cc1C	> 100 µM (inactive)	> 100 µM (inactive)	> 100 µM (inactive)	> 100 µM (inactive)	> 100 µM (inactive)	> 100 µM (inactive)	68.7 µM (inactive)	> 100 µM (inactive)	–	> 100 µM (inactive)	> 100 µM (inactive)	> 100 µM (inactive)	> 100 µM (inactive)	> 100 µM (inactive)	> 100 µM (inactive)
CC(=O)OCCC(O[Si](c1ccccc1)(c1ccccc1)C(C)(C)C)C(C)(C)O (stereo not given)	17.6 µM (inactive)	38.9 µM (inactive)	24.6 µM (inactive)	48.4 µM (inactive)	42.7 µM (inactive)	35.6 µM (inactive)	–	51.6 µM (inactive)	63.1 µM (inactive)	34.5 µM (inactive)	36.3 µM (inactive)	23.3 µM (inactive)	75 µM (inactive)	24 µM (inactive)	32.1 µM (inactive)
O=C1C2C=CC(n3[nH]c(=O)n(Cc4ccccc4)c3=O)CC2C(=O)N1c1ccc(Br)cc1 (stereo not given)	> 100 µM (inactive)	> 100 µM (inactive)	> 100 µM (inactive)	> 100 µM (inactive)	> 100 µM (inactive)	47.1 µM (inactive)	> 100 µM (inactive)	> 100 µM (inactive)	> 100 µM (inactive)	> 100 µM (inactive)	> 100 µM (inactive)	> 100 µM (inactive)	> 100 µM (inactive)	> 100 µM (inactive)	> 100 µM (inactive)
O=C(CC1(O)C(=O)Nc2ccccc21)c1ccc(Cl)cc1Cl (stereo not given)	> 100 µM (inactive)	> 100 µM (inactive)	> 100 µM (inactive)	> 100 µM (inactive)	> 100 µM (inactive)	> 100 µM (inactive)	> 100 µM (inactive)	> 100 µM (inactive)	> 100 µM (inactive)	> 100 µM (inactive)	–	–	> 100 µM (inactive)	> 100 µM (inactive)	–
N#CC(C(=O)CCC(=O)Nc1ccc(Cl)c(Cl)c1)c1ccc(Cl)cc1 (stereo not given)	> 100 µM (inactive)	> 100 µM (inactive)	80.9 µM (inactive)	> 100 µM (inactive)	–	51.1 µM (inactive)	37.3 µM (inactive)	65.6 µM (inactive)	> 100 µM (inactive)	84.9 µM (inactive)	> 100 µM (inactive)	47.5 µM (inactive)	22.9 µM (inactive)	53.7 µM (inactive)	> 100 µM (inactive)
CCOc1ccc(NC(=O)C2=C(C)NC(C)=C(C(=O)Nc3ccc(OCC)cc3)C2c2ccc([N+](=O)[O-])cc2)cc1	14 µM (inactive)	35 µM (inactive)	12.9 µM (inactive)	29 µM (inactive)	> 100 µM (inactive)	29.4 µM (inactive)	30 µM (inactive)	15.3 µM (inactive)	36 µM (inactive)	17.9 µM (inactive)	27.8 µM (inactive)	29.9 µM (inactive)	16.2 µM (inactive)	7.1 µM (inactive)	22.9 µM (inactive)
O=C(Nc1ccccc1-c1nn(C(=S)Nc2ccccc2)c(=S)n(C(=S)Nc2ccccc2)c1=O)C(F)(F)F	34 µM (inactive)	23.9 µM (inactive)	12.8 µM (inactive)	27.6 µM (inactive)	> 87.3 µM (inactive)	31.1 µM (inactive)	31.4 µM (inactive)	11.7 µM (inactive)	35.4 µM (inactive)	24.4 µM (inactive)	25.6 µM (inactive)	17.3 µM (inactive)	22.2 µM (inactive)	7.85 µM (inactive)	21.3 µM (inactive)
O=c1[nH]c(=O)n(C2OC(CO)C(O)C2O)cc1OCC(F)(F)F (stereo not given)	> 100 µM (inactive)	> 100 µM (inactive)	> 100 µM (inactive)	> 100 µM (inactive)	> 100 µM (inactive)	> 100 µM (inactive)	> 100 µM (inactive)	> 100 µM (inactive)	> 100 µM (inactive)	> 100 µM (inactive)	> 100 µM (inactive)	> 100 µM (inactive)	> 100 µM (inactive)	> 100 µM (inactive)	> 100 µM (inactive)
C[C@@H](NC1CCCC[C@@H]1O)c1ccccc1 (stereo not given in full)	> 100 µM (inactive)	> 100 µM (inactive)	> 100 µM (inactive)	> 100 µM (inactive)	> 100 µM (inactive)	98.4 µM (inactive)	> 100 µM (inactive)	> 100 µM (inactive)	> 100 µM (inactive)	> 100 µM (inactive)	> 100 µM (inactive)	> 100 µM (inactive)	> 100 µM (inactive)	> 100 µM (inactive)	> 100 µM (inactive)
CC/C=C/c1cc2cc[nH]c2c2c1C(C)C[C@@H]2C (stereo not given in full)	17.7 µM (inactive)	26.1 µM (inactive)	24.2 µM (inactive)	43.2 µM (inactive)	63.8 µM (inactive)	27.4 µM (inactive)	32.8 µM (inactive)	21.6 µM (inactive)	–	35.9 µM (inactive)	23.4 µM (inactive)	19.8 µM (inactive)	–	18.8 µM (inactive)	25.1 µM (inactive)
CC(=O)OC(C[C@H](C)[C@@H]1CC[C@]2(C)C3=CCC4C(C)(C)C(=O)CC[C@]4(C)C3CCC12C)C1OC1(C)C (stereo not given in full)	15.1 µM (inactive)	28.8 µM (inactive)	11.9 µM (inactive)	32.7 µM (inactive)	13 µM (inactive)	–	–	–	39.6 µM (inactive)	21.2 µM (inactive)	21.9 µM (inactive)	20 µM (inactive)	45.1 µM (inactive)	24.5 µM (inactive)	–
